# Test results published in doi:10.1101/2021.04.08.439011v1 (biorxiv, 2021).
# Where two headings read alike, the source gives them in different places.
# Assays:
# [1] = molecular target: ABL1(T315I) (Homo sapiens, UniProt P00519, T315I); settings: nonphosphorylated; 1 µM; binder
# [2] = molecular target: ADCK3 (Homo sapiens, UniProt Q8NI60); settings: 1 µM; binder
# [3] = molecular target: BRSK2 (Homo sapiens, UniProt Q8IWQ3); settings: 1 µM; binder
# [4] = molecular target: CDKL2 (Homo sapiens, UniProt Q92772); settings: 1 µM; binder
# [5] = molecular target: CIT (Homo sapiens, UniProt O14578); settings: 1 µM; binder
# [6] = molecular target: DDR1 (Homo sapiens, UniProt Q08345); settings: 1 µM; binder
# [7] = molecular target: EGFR(S752-I759del) (Homo sapiens, UniProt P00533, DEL752-759); settings: 1 µM; binder
# [8] = molecular target: EPHA2 (Homo sapiens, UniProt P29317); settings: 1 µM; binder
# [9] = molecular target: FLT3(ITD) (Homo sapiens, UniProt P36888); settings: 1 µM; binder
# FLT3(ITD), sequence (P36888 564-993, change not shown): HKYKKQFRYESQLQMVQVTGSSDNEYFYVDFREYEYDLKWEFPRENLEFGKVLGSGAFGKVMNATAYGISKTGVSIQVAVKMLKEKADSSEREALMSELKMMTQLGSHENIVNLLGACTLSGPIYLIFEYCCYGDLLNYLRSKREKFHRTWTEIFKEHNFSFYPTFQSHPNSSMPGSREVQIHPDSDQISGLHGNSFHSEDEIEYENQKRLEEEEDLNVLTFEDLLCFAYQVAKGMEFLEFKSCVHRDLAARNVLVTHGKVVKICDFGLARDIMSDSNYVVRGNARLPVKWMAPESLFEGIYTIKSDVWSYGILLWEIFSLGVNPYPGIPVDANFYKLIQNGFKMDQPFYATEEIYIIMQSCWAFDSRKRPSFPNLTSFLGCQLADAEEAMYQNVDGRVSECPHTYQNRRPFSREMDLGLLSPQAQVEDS
# [10] = molecular target: GRK1 (Homo sapiens, UniProt Q15835); settings: 1 µM; binder
# [11] = molecular target: HASPIN (Homo sapiens, UniProt Q8TF76); settings: 1 µM; binder
# HASPIN, sequence (Q8TF76 whole entry): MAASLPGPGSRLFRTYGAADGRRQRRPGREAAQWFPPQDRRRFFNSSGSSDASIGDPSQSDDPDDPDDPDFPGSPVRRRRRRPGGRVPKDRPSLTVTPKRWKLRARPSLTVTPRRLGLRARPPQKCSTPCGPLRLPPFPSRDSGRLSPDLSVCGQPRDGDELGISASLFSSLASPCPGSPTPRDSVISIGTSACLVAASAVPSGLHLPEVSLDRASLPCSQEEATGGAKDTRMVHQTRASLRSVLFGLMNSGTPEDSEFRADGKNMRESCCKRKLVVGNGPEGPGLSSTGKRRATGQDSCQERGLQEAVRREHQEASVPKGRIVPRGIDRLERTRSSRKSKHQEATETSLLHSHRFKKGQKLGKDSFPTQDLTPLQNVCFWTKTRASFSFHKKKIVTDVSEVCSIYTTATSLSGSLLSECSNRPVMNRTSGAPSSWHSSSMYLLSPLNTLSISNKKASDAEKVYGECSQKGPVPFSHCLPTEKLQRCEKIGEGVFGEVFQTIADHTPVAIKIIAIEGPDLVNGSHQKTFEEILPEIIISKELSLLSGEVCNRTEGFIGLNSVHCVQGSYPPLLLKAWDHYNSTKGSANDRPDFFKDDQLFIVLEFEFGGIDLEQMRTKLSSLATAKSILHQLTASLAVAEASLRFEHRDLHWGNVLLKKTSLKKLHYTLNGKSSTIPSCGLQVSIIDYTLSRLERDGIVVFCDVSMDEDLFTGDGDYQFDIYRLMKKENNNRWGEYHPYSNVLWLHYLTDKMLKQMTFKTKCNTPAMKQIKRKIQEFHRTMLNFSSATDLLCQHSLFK
# [12] = molecular target: HIPK3 (Homo sapiens, UniProt Q9H422); settings: 1 µM; binder
# [13] = molecular target: HIPK4 (Homo sapiens, UniProt Q8NE63); settings: 1 µM; binder
# [14] = molecular target: INSRR (Homo sapiens, UniProt P14616); settings: 1 µM; binder
# [15] = molecular target: LATS1 (Homo sapiens, UniProt O95835); settings: 1 µM; binder
# LATS1, sequence (O95835 whole entry): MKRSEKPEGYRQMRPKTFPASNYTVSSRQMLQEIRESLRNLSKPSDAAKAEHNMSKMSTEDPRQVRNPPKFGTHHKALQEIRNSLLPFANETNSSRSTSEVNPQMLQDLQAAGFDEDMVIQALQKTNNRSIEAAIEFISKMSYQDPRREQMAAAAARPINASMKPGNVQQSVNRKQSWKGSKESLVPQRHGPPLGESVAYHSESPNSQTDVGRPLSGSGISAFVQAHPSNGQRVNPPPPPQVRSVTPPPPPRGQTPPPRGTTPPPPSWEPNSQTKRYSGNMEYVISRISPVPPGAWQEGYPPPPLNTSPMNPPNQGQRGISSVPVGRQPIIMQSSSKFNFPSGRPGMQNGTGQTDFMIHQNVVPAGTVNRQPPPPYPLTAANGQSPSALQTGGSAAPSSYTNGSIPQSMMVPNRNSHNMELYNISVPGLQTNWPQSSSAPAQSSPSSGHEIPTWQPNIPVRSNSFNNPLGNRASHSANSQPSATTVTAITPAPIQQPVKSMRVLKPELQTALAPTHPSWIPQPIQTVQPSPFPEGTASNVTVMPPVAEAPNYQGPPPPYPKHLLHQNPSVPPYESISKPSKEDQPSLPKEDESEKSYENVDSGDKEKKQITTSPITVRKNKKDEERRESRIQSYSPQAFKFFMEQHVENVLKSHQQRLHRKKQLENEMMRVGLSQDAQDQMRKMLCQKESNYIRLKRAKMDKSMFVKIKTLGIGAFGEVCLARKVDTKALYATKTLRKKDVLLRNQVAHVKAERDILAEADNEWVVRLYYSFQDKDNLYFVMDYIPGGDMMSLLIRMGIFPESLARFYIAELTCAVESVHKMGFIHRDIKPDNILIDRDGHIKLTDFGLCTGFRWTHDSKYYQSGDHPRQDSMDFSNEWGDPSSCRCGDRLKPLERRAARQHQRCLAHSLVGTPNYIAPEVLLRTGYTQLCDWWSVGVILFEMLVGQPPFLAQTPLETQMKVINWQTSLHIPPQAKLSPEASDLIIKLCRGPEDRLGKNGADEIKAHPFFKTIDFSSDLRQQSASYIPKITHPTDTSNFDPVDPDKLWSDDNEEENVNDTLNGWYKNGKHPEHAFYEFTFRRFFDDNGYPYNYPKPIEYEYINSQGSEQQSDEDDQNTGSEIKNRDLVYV
# [16] = molecular target: MAST1 (Homo sapiens, UniProt Q9Y2H9); settings: 1 µM; binder
# [17] = molecular target: NIM1 (Homo sapiens, UniProt Q8IY84); settings: 1 µM; binder
# [18] = molecular target: NLK (Homo sapiens, UniProt Q9UBE8); settings: 1 µM; binder
# [19] = molecular target: PDPK1 (Homo sapiens, UniProt O15530); settings: 1 µM; binder
# PDPK1, sequence (O15530 whole entry): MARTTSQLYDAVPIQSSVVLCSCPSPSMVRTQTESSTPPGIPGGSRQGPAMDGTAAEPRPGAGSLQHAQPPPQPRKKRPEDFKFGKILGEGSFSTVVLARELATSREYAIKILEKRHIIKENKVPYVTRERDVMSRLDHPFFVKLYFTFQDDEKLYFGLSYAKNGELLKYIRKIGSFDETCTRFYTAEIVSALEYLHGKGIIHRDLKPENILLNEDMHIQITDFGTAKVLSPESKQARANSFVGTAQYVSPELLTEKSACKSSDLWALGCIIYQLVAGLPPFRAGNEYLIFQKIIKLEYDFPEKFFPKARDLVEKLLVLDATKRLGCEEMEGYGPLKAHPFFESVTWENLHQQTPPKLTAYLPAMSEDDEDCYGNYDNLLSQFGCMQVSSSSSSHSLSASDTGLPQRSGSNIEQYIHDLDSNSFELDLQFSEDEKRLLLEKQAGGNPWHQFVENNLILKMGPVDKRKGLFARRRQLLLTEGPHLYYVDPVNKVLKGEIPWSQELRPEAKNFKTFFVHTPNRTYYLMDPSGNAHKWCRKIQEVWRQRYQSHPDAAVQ
# [20] = molecular target: PIK3CA(M1043I) (Homo sapiens, UniProt P42336, M1043I); settings: 1 µM; binder
# [21] = molecular target: PIK4CB (Homo sapiens, UniProt Q9UBF8); settings: 1 µM; binder
# [22] = molecular target: PKN1 (Homo sapiens, UniProt Q16512); settings: 1 µM; binder
# [23] = molecular target: PLK4 (Homo sapiens, UniProt O00444); settings: 1 µM; binder
# [24] = molecular target: RIPK2 (Homo sapiens, UniProt O43353); settings: 1 µM; binder
# RIPK2, sequence (O43353 whole entry): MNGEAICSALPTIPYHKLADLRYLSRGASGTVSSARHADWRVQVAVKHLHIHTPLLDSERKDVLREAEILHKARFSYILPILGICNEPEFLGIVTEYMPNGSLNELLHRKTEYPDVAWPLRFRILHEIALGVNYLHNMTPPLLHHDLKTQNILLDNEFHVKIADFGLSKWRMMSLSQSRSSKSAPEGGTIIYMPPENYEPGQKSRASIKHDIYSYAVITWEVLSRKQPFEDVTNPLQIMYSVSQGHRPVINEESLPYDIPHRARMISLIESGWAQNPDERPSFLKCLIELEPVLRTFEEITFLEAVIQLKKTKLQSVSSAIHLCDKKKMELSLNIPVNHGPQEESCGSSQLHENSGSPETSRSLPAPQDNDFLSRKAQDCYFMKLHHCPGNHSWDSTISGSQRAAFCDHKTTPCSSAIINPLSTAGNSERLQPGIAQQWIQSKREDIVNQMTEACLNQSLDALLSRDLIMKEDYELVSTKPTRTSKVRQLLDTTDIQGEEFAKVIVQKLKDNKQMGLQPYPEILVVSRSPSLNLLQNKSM
# [25] = molecular target: RPS6KA5 (Homo sapiens, UniProt O75582); settings: Kin.Dom.1 N-terminal; binder
# [26] = molecular target: TLK1 (Homo sapiens, UniProt Q9UKI8); settings: 1 µM; binder
# [27] = molecular target: TRKA (Homo sapiens, UniProt P04629); settings: 1 µM; binder
# [28] = molecular target: TSSK3 (Homo sapiens, UniProt Q96PN8); settings: 1 µM; binder
# [29] = molecular target: TYK2 (Homo sapiens, UniProt P29597); settings: binder
# TYK2, sequence (P29597 whole entry): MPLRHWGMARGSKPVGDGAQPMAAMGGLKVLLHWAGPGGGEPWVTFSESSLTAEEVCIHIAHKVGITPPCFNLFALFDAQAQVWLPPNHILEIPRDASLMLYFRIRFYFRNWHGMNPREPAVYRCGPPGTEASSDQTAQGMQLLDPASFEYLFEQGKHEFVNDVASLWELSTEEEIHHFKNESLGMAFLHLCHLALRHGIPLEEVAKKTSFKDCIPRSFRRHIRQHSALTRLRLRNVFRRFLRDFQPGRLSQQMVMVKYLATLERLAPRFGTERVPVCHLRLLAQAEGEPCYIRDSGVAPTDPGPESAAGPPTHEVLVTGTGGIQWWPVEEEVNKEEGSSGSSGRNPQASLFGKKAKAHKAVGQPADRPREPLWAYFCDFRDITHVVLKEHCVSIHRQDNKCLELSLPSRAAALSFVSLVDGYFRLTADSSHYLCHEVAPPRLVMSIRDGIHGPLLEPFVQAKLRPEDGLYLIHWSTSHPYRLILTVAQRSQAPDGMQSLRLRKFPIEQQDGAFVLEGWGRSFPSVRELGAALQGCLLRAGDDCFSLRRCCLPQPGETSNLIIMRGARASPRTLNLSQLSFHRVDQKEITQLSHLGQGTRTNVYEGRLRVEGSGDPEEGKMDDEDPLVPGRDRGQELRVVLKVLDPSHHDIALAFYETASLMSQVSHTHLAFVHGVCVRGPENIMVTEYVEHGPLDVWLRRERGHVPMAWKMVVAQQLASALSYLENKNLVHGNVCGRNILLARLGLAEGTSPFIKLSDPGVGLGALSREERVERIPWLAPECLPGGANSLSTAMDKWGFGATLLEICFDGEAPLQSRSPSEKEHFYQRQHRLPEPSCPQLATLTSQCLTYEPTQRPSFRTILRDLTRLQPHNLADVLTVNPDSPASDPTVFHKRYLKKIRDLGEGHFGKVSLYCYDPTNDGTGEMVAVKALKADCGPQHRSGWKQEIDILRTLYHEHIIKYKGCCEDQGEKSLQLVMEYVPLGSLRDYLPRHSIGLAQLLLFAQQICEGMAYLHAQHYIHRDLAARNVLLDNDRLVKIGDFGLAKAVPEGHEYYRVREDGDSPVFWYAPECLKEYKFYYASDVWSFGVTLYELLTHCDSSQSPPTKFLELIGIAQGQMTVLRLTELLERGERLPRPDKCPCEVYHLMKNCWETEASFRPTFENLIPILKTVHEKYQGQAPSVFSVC
# [30] = molecular target: YANK2 (Homo sapiens, UniProt Q9NY57); settings: 1 µM; binder
# YANK2, sequence (Q9NY57 whole entry): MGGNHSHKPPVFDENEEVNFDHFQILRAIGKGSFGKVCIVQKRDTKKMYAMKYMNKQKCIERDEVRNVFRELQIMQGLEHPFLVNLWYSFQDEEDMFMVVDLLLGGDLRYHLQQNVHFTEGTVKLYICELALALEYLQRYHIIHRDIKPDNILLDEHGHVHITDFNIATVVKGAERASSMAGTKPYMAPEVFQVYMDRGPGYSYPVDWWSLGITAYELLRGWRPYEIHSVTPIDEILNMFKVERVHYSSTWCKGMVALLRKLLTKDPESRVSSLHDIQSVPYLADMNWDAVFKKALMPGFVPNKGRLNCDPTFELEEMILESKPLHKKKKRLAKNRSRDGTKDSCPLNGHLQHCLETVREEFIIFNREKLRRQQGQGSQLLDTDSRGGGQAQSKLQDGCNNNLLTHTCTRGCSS
smiles,measurement,setting,value
"CNc1ncc2cc(-c3ccc(-c4cccc(C)n4)cc3Cl)c(=O)n(C[C@H]3OC[C@H](N)CO3)c2n1 [compound 6, G-5555]",Percent Control,[1],100%
same,Percent Control,[2],100%
same,Percent Control,[3],100%
same,Percent Control,[4],58%
same,Percent Control,[5],100%
same,Percent Control,[6],53%
same,Percent Control,[7],100%
same,Percent Control,[8],100%
same,Percent Control,[9],100%
same,Percent Control,[10],100%
same,Percent Control,[11],100%
same,Percent Control,[12],100%
same,Percent Control,[13],100%
same,Percent Control,[14],100%
same,Percent Control,[15],41%
same,Percent Control,[16],0.4%
same,Percent Control,[17],100%
same,Percent Control,[18],17%
same,Percent Control,[19],71%
same,Percent Control,[20],100%
same,Percent Control,[21],100%
same,Percent Control,[22],92%
same,Percent Control,[23],67%
same,Percent Control,[24],65%
same,Percent Control,[25],100%
same,Percent Control,[26],100%
same,Percent Control,[27],64%
same,Percent Control,[28],84%
same,Percent Control,[29]; JH1 domain catalytic,74%
same,Percent Control,"[29]; JH2 domain pseudokinase, 1 µM",98%
same,Percent Control,[30],0%
